Experimental data: patent US20070009509A1, “Antibody against nox1 polypeptide, method of diagnosing cancer with the use of nox1 gene and method of screening cancer growth inhibitor” (priority 2003, published 2007)

What was measured:
K-Ras-NRK cells = assay: Morphology of K-Ras-NRK cells treated overnight with inhibitors; type: cell-based, rat; conditions: 20 μM DPI, 30 μM PD98059, 10 mM n-acetyl cysteine (data not shown), FIG. 13
Method: Diphenylene iodonium (DPI), a Nox1 inhibitor, was used to examine the influence of Nox1 gene expression on the morphologies of the cells transformed with mutant Ras. Namely, K-Ras-NRK cells and NRK cells were cultured overnight at 37° C. in a medium containing 20 μM DPI or 30 μM PD98059 under a 5% CO2-containing moisture environment to observe morphological changes.

[1] = test system: Nox1 expression in the K-Ras-NRK cells; assay: Nox1 expression in K-Ras-NRK cells by real-time quantitative polymerase chain reaction; type: cell-based, rat; conditions: PD98059 20 μM, 100 μM, treated for 12 hours; FIG. 1(a)
Method: At first, rat kidney (NRK) cells and K-Ras-NRK cells (Kirstein murine sarcoma virus-transformed NRK cells) were prepared. The K-Ras-NRK cells were purchased from ATCC.
The presence or absence of Nox1 expression in the rat kidney (NRK) cells and the K-Ras-NRK cells was initially detected by real-time quantitative polymerase chain reaction. The real-time quantitative polymerase chain reaction used a forward primer of SEQ ID NO: 15, a reverse primer of SEQ ID NO: 16, and a TaqMan MGB probe of SEQ ID NO: 17.
The real-time quantitative polymerase chain reaction was performed using ABI Prism 7700 (Applied Biosystems) under reaction conditions set to defaults. Analytical values were standardized using rRNA 18S.
(§1) A series of experiments were performed for analyzing the downstream region of a Ras signaling pathway of Nox1 gene expression elevated by mutant Ras gene. In Examples 1 and 2, the cells were treated for 12 hours with PD98059 (PD: 20 μM, 100 μM), an MAPKK inhibitor, to analyze Nox1 expression in the K-Ras-NRK cells and serum- and EGF-induced Nox1 expression by real-time quantitative polymerase chain reaction.

[2] = test system: Nox1 gene expression in NIH3T3 cells; assay: Serum- and EGF-induced Nox1 expression in NIH3T3 cells by real-time quantitative polymerase chain reaction; type: cell-based
Method: NIH3T3 cells cultured overnight under serum-free conditions were treated mitogeniclally with serum (30%) or 50 ng/ml epidermal growth factor (EGF) and then analyzed by real-time quantitative polymerase chain reaction. As a result, Nox1 gene expression was increased to 6 to 20 times within 12 hours from the initiation of the culture, as shown in FIGS. 1(c) and (d). That is, Nox1 gene expression is associated with factors that promote cell growth. This is consistent with the reports saying that both platelet-derived growth factor (PDGF) and angiotensin II induce superoxide formation and Nox1 gene expression in vascular smooth muscle cells (1 and 4).
as §1

[3] = test system: Nox1 expression in the H-Ras-NIH3T3 cells; assay: Control experiment: Nox1 expression in H-Ras-NIH3T3 cells; type: cell-based; conditions: wortmannin 100 nM; data not shown
[4] = test system: superoxide production in K-Ras-NRK cells; assay: Superoxide production by NBT reduction analysis; type: cell-based, rat; conditions: 40 units of superoxide dismutase, 37° C., 8 minutes
Method: The present inventors measured superoxide production by NBT reduction analysis using the transformed cells of Example 4 in order to evaluate the role of Nox1 in superoxide production induced by mutant Ras. In the present example, the method of Suh et al. was used in the NBT (nitroblue tetrazolium) analysis (1). Namely, 0.2 ml of a Hanks solution containing 0.25% NBT was prepared with or without 40 units of superoxide dismutase (SOD), a reactive oxygen-digesting enzyme, in which 2×10^5 cells were in turn suspended and treated at 37° C. for 8 minutes. The treated cells were separated by low-speed centrifugation and solubilized by the addition of 0.5 ml of pyridine. Absorbance at 510 nm was measured to quantify a decrease in NBT (extinction coefficient of 11,000/M/cm). The obtained data was shown in FIG. 6 with +/−s.e.m. from 3 measurements.

Molecule: c1ccc2c(c1)[I+]c1ccccc1-2 [DPI, Diphenylene iodonium]
- morphological changes of K-Ras-NRK cells (K-Ras-NRK cells): transiently assumed a flat shape that was close to the shape of the NRK cells

Molecule: COc1cccc(-c2cc(=O)c3ccccc3o2)c1N [PD98059]
- Nox1 expression in the K-Ras-NRK cells [1]: inhibited by the PD98059 concentration-dependently
- EGF-induced Nox1 expression ([2]; 20 μM PD98059, 50 ng/ml EGF, FIG. 1(d)): inhibited
- serum-induced Nox1 expression ([2]; 20 μM PD98059, serum (30%), FIG. 1(c)): inhibited
- morphological changes of K-Ras-NRK cells (K-Ras-NRK cells): such morphological changes were also observed

Molecule: CC(=O)N[C@@H](CS)C(=O)O [n-acetyl cysteine]
- morphological changes of K-Ras-NRK cells (K-Ras-NRK cells): transiently assumed a flat shape that was close to the shape of the NRK cells

Molecule: COC[C@H]1OC(=O)c2coc3c2[C@@]1(C)C1=C(C3=O)[C@@H]2CCC(=O)[C@@]2(C)C[C@H]1OC(C)=O [wortmannin]
- increase in Nox1 expression in the H-Ras-NIH3T3 cells [3]: did not inhibit

Molecule: superoxide dismutase
- NBT reduction increased in K-Ras-NRK and K-Ras-NRK/neg-1 [4]: inhibited
